Patent publication US20100204224A1, “AZACYCLIC COMPOUNDS AS INHIBITORS OF SENSORY NEURONE SPECIFIC SODIUM CHANNELS” (priority 2005, published 2010)
Structures can show the parent of a compound that is named as a salt.

molecular target: T1, human Nav1.8 (hNav1.8) ion channel (Homo sapiens, UniProt Q9Y5Y9); test: Inhibition of human Nav1.8 stably expressed in SH-SY-5Y cells (membrane potential dye fluorescence assay); format: cell-based; details: SH-SY-5Y hNav1.8 cells; FLIPR membrane potential dye; 10 μM pyrethroid, 250 nM TTX; test concentration range 100 μM-0.05 μM; read-out: hNav1.8 IC50
T1 construct: expressed in transfected cells
T1 sequence (Q9Y5Y9 whole entry): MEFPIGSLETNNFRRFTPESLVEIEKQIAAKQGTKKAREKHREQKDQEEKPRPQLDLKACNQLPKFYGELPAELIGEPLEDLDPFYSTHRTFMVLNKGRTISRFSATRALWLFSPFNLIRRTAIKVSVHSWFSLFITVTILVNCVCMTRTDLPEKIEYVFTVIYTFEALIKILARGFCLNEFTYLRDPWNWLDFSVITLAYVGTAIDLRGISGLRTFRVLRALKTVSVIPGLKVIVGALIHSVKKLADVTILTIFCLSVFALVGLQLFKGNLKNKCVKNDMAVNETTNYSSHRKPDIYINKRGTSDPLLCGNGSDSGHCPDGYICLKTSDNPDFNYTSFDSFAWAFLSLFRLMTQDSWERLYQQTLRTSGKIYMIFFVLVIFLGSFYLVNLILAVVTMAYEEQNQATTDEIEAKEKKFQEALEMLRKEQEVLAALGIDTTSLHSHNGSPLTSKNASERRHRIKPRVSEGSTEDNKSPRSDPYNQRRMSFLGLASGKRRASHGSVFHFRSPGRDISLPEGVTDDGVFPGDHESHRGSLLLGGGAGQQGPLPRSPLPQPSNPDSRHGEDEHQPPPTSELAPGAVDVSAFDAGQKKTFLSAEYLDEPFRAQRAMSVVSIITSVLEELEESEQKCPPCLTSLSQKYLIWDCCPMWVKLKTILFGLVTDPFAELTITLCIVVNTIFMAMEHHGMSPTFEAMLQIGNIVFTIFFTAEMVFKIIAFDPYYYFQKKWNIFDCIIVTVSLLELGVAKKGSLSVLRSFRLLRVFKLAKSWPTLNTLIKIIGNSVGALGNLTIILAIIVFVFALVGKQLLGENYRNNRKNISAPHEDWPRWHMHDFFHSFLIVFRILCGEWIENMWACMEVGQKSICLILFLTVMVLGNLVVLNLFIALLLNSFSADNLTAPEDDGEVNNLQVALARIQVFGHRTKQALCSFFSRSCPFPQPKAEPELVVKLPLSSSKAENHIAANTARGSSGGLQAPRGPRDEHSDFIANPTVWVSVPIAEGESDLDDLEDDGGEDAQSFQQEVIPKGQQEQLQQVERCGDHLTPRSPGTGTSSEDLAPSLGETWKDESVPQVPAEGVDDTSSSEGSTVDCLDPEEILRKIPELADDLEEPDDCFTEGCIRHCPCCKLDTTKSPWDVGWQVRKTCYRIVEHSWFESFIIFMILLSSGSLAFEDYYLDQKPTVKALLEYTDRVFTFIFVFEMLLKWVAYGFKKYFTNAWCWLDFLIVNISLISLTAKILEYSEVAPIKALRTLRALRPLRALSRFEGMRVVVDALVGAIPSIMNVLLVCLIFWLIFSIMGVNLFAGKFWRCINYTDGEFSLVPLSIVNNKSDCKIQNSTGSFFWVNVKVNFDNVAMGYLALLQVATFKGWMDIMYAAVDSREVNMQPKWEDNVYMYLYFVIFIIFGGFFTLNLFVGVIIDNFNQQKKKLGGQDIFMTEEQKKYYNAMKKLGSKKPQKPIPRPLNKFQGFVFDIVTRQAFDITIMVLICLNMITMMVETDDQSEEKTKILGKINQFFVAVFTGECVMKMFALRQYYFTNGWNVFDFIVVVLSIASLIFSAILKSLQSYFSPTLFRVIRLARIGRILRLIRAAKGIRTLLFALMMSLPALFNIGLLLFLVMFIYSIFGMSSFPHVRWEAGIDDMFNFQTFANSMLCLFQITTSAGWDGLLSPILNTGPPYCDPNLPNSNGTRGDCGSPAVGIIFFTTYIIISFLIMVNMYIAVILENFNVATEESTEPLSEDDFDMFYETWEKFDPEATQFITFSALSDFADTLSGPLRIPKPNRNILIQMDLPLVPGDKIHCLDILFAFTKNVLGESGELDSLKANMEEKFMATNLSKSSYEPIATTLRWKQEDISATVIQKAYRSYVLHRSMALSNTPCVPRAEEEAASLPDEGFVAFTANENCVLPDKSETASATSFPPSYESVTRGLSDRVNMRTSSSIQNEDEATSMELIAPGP

Structure (SMILES) | IC50 [nM]
CC(c1ccccc1Cl)N1CC2CN(C(=O)Nc3ccc(Oc4ccc(F)cc4)cc3)CC2C1 (stereo not drawn) [Example 107, 5-[1-(2-Chloro-phenyl)-ethyl]-hexahydro-pyrrolo[3,4-c]pyrrole-2-carboxylic acid [4-(4-fluoro-phenoxy)-phenyl]-amide] | 1130
CC(Cc1c(F)cccc1Cl)N1CC2CC1CN2C(=O)Nc1ccc(C(F)(F)F)cc1 (stereo not drawn) [Example 85, 5-[2-(2-Chloro-6-fluoro-phenyl)-1-methyl-ethyl]-2,5-diaza-bicyclo[2.2.1]heptane-2-carboxylic acid (4-trifluoromethyl-phenyl)-amide] | 630
Cc1cc(F)ccc1C(C)N1CC2CC1CN2C(=O)Nc1ccc(C(F)(F)F)cc1 (stereo not drawn) [Example 65, 5-[1-(4-Fluoro-2-methyl-phenyl)-ethyl]-2,5-diaza-bicyclo[2.2.1]heptane-2-carboxylic acid (4-trifluoromethyl-phenyl)-amide] | 600
CC(c1ccccc1Cl)N1CC2CC1CN2C(=O)Nc1ccc(Oc2ccccc2F)cc1 (stereo not drawn) [Example 109, 5-[1-(2-Chloro-phenyl)-ethyl]-2,5-diaza-bicyclo[2.2.1]heptane-2-carboxylic acid [4-(2-fluoro-phenoxy)-phenyl]-amide] | 680
CC(c1ccccc1C(F)(F)F)N1CC2CC1CN2C(=O)Nc1cccc(C(F)(F)F)c1 (stereo not drawn) [Example 55, 5-[1-(2-Trifluoromethyl-phenyl)-ethyl]-2,5-diaza-bicyclo[2.2.1]heptane-2-carboxylic acid (3-trifluoromethyl-phenyl)-amide] | 4240
CC(c1ccccc1Cl)N1CC2CC1CN2C(=O)c1ccc(Oc2ccc(F)cc2)c(F)c1 (stereo not drawn) [Example 179, {5-[1-(2-Chloro-phenyl)-ethyl]-2,5-diaza-bicyclo[2.2.1]hept-2-yl}-[3-fluoro-4-(4-fluoro-phenoxy)-phenyl]-methanone methanesulfonate salt] | 1340
Cc1ccccc1C(C)N1CC2CC1CN2C(=O)Nc1ccc(Oc2ccccc2)cc1 (stereo not drawn) [Example 4, 5-(1-o-Tolyl-ethyl)-2,5-diaza-bicyclo[2.2.1]heptane-2-carboxylic acid (4-phenoxy-phenyl)-amide] | 320
Cc1ccccc1C(C)N1CC2CC1CN2C(=O)Nc1ccc(OCCN2CCCC2)cc1 (stereo not drawn) [Example 41, 5-(1-o-Tolyl-ethyl)-2,5-diaza-bicyclo[2.2.1]heptane-2-carboxylic acid [4-(2-pyrrolidin-1-yl-ethoxy)-phenyl]-amide] | ≥ 30000
CC(c1ccccc1Cl)N1CC2CC1CN2C(=O)c1cc2cc(Cl)ccc2[nH]1 (stereo not drawn) [Example 150, (5-Chloro-1H-indol-2-yl)-{5-[1-(2-chloro-phenyl)-ethyl]-2,5-diaza-bicyclo[2.2.1]hept-2-yl}-methanone] | 18200
CC(c1c(F)cccc1Cl)N1CC2CC1CN2C(=O)c1ccc(Oc2ccc(F)cc2)cc1 (stereo not drawn) [Example 168, {5-[1-(2-Chloro-6-fluoro-phenyl)-ethyl]-2,5-diaza-bicyclo[2.2.1]hept-2-yl}-[4-(4-fluoro-phenoxy)-phenyl]-methanone] | 1700
CC(c1ccccc1Cl)N1CC2CC1CN2C(=O)Nc1ccc(Oc2ccc(F)cc2)cc1 (single isomer, unassigned) [Example 73, 5-[1-(2-Chloro-phenyl)-ethyl]-2,5-diaza-bicyclo[2.2.1]heptane-2-carboxylic acid [4-(4-fluoro-phenoxy)-phenyl]-amide] | 1130
Cc1ccccc1CC(C)N1CC2CC1CN2C(=O)Nc1ccc(Oc2ccccc2)cc1 (stereo not drawn) [Example 58, 5-(1-Methyl-2-o-tolyl-ethyl)-2,5-diaza-bicyclo[2.2.1]heptane-2-carboxylic acid (4-phenoxy-phenyl)-amide] | 230
Cc1ccc(Oc2ccc(NC(=O)N3CC4CC3CN4C(C)c3ccc(Cl)cc3Cl)cc2)cc1 (stereo not drawn) [Example 127, 5-[1-(2,4-Dichloro-phenyl)-ethyl]-2,5-diaza-bicyclo[2.2.1]heptane-2-carboxylic acid (4-p-tolyloxy-phenyl)-amide] | 22100
Cc1ccccc1C(C)N1CC2CC1CN2C(=O)Nc1ccc(OC2CCCC2)cc1 (stereo not drawn) [Example 24, 5-(1-o-Tolyl-ethyl)-2,5-diaza-bicyclo[2.2.1]heptane-2-carboxylic acid (4-cyclopentyloxy-phenyl)-amide] | 890
CC(c1ccc(Cl)cc1Cl)N1CC2CC1CN2C(=O)Nc1ccc(C(F)(F)F)cc1 (stereo not drawn) [Example 126, 5-[1-(2,4-Dichloro-phenyl)-ethyl]-2,5-diaza-bicyclo[2.2.1]heptane-2-carboxylic acid (4-trifluoromethyl-phenyl)-amide] | 22900
CC(c1ccc(Cl)cc1Cl)N1CC2CC1CN2C(=O)Nc1ccc(Oc2ccc(F)cc2)cc1 (stereo not drawn) [Example 119, 5-[1-(2,4-Dichloro-phenyl)-ethyl]-2,5-diaza-bicyclo[2.2.1]heptane-2-carboxylic acid [4-(4-fluoro-phenoxy)-phenyl]-amide] | 20900

Structure (SMILES) | IC50 [nM]
Cc1ccccc1CC(C)N1CC2CC1CN2C(=O)Nc1ccc(C(F)(F)F)cc1 (stereo not drawn) [Example 59, 5-(1-Methyl-2-o-tolyl-ethyl)-2,5-diaza-bicyclo[2.2.1]heptane-2-carboxylic acid (4-trifluoromethyl-phenyl)-amide] | 750
CC(c1ccccc1C(F)(F)F)N1CC2CC1CN2C(=O)Nc1cccc(C(F)(F)F)c1 (stereo not drawn) [Example 57, 5-[1-(2-Trifluoromethyl-phenyl)-ethyl]-2,5-diaza-bicyclo[2.2.1]heptane-2-carboxylic acid (3-trifluoromethyl-phenyl)-amide] | 5130
CC(c1ccccc1Cl)N1CC2CC1CN2C(=O)c1ccc(Oc2cccc(F)c2)cc1 (stereo not drawn) [Example 169, {5-[1-(2-Chloro-phenyl)-ethyl]-2,5-diaza-bicyclo[2.2.1]hept-2-yl}-[4-(3-fluoro-phenoxy)-phenyl]-methanone] | 840
CC(c1ccccc1Cl)N1CC2CC1CN2C(=O)c1ccc(Oc2ccc(F)cc2)c(F)c1 (single isomer, unassigned) [Example 177, {5-[1-(2-Chloro-phenyl)-ethyl]-2,5-diaza-bicyclo[2.2.1]hept-2-yl}-[3-fluoro-4-(4-fluoro-phenoxy)-phenyl]-methanone] | 740
Cc1ccsc1CN1CC2CC1CN2C(=O)Nc1ccc(Oc2ccccc2)nc1 (stereo not drawn) [Example 2, 5-(3-Methyl-thiophen-2-ylmethyl)-2,5-diaza-bicyclo[2.2.1]heptane-2-carboxylic acid (6-phenoxy-pyridin-3-yl)-amide] | 3740
Cc1ccccc1C(C)N1CC2CC1CN2C(=O)Nc1ccc(C(=O)c2ccccc2)cc1 (stereo not drawn) [Example 66, 5-(1-o-Tolyl-ethyl)-2,5-diaza-bicyclo[2.2.1]heptane-2-carboxylic acid (4-benzoyl-phenyl)-amide] | 720
CC(c1ccccc1C(F)(F)F)N1CC2CC1CN2C(=O)Nc1cccc(Oc2ccccc2)c1 (stereo not drawn) [Example 63, 5-[1-(2-Trifluoromethyl-phenyl)-ethyl]-2,5-diaza-bicyclo[2.2.1]heptane-2-carboxylic acid (3-phenoxy-phenyl)-amide] | 6100
CC(c1ccccc1Cl)N1CC2CC1CN2C(=O)Nc1ccc(Oc2ccc(F)cc2)cc1 (stereo not drawn) [Example 96, 5-[1-(2-Chloro-phenyl)-ethyl]-2,5-diaza-bicyclo[2.2.1]heptane-2-carboxylic acid [4-(4-fluoro-phenoxy)-phenyl]-amide methanesulfonate salt] | 370
COCCOCCOc1ccc(NC(=O)N2CC3CC2CN3C(C)c2ccccc2C)cc1 (stereo not drawn) [Example 18, 5-(1-o-Tolyl-ethyl)-2,5-diaza-bicyclo[2.2.1]heptane-2-carboxylic acid {4-[2-(2-methoxy-ethoxy)-ethoxy]-phenyl}-amide] | ≥ 30000
O=C(Nc1ccc(Oc2cccc(F)c2)cc1)N1CC2CC1CN2C1Cc2ccccc2C1 (stereo not drawn) [Example 114, 5-Indan-2-yl-2,5-diaza-bicyclo[2.2.1]heptane-2-carboxylic acid [4-(3-fluoro-phenoxy)-phenyl]-amide] | 80
CC(c1c(F)cccc1F)N1CC2CC1CN2C(=O)Nc1ccc(Oc2ccccc2)cc1 (stereo not drawn) [Example 9, 5-[1-(2,6-Difluoro-phenyl)-ethyl]-2,5-diaza-bicyclo[2.2.1]heptane-2-carboxylic acid (4-phenoxy-phenyl)-amide] | 870
CC(c1ccc(Cl)cc1Cl)N1CC2CC1CN2C(=O)Nc1ccc(Oc2ccc(Cl)cc2)cc1 (stereo not drawn) [Example 121, 5-[1-(2,4-Dichloro-phenyl)-ethyl]-2,5-diaza-bicyclo[2.2.1]heptane-2-carboxylic acid [4-(4-chloro-phenoxy)-phenyl]-amide] | 22400
CC(c1ccccc1C(F)(F)F)N1CC2CC1CN2C(=O)Nc1ccc(C(F)(F)F)cc1 (single isomer, unassigned) [Example 56, 5-[1-(2-Trifluoromethyl-phenyl)-ethyl]-2,5-diaza-bicyclo[2.2.1]heptane-2-carboxylic acid (4-trifluoromethyl-phenyl)-amide] | 7910
CC(c1c(F)cccc1F)N1CC2CC1CN2C(=O)Nc1ccc(Oc2ccccc2)cc1 (stereo not drawn) [Example 10, 5-[1-(2,6-Difluoro-phenyl)-ethyl]-2,5-diaza-bicyclo[2.2.1]heptane-2-carboxylic acid (4-phenoxy-phenyl)-amide] | 1100
O=C(Nc1ccc(Oc2ccccc2)cc1)N1CCC2(CCN(Cc3ccccc3)C2)C1 (stereo not drawn) [Example 88, 7-Benzyl-2,7-diaza-spiro[4.4]nonane-2-carboxylic acid (4-phenoxy-phenyl)-amide] | 390

same assay, conditions: hNav1.8 IC50, SH-SY-5Y hNav1.8 cells; FLIPR membrane potential dye; 10 μM pyrethroid, 250 nM TTX; test concentration range 100 μM-0.05 μM

Structure (SMILES) | IC50 [nM]
CC(c1ccccc1Cl)N1CC2CC1CN2C(=O)Cc1ccc(Oc2cccc(F)c2)cc1 (stereo not drawn) [Example 170, 1-{5-[1-(2-Chloro-phenyl)-ethyl]-2,5-diaza-bicyclo[2.2.1]hept-2-yl}-2-[4-(3-fluoro-phenoxy)-phenyl]-ethanone] | 1570
O=C(Cc1ccc(C(F)(F)F)cc1)N1CC2CC1CN2C1CCc2ccc(F)cc2C1 (stereo not drawn) [Example 148, 1-[5-(7-Fluoro-1,2,3,4-tetrahydro-naphthalen-2-yl)-2,5-diaza-bicyclo[2.2.1]hept-2-yl]-2-(4-trifluoromethyl-phenyl)-ethanone] | 2390
